ChEMBL document CHEMBL1909046, “DrugMatrix in vitro pharmacology data”

Experiments:
Carbonic anhydrase 2 = Carbonic anhydrase 2 (Homo sapiens, UniProt P00918); experiment: DRUGMATRIX: Carbonic Anhydrase II enzyme inhibition (substrate: 4-Nitrophenyl acetate (4-NPA)); format: tissue-based, Erythrocyte; settings: Not Active = under 50% inhibition at 10 µM
[1] = molecular target: C-C chemokine receptor type 2 (Homo sapiens, UniProt P41597); format: cell membranes, CHO-K1, Membrane; settings: cho-k1; also: in other assays of this panel Not Active means under 50% inhibition at 10 µM
[2] = molecular target: T1, C-X-C chemokine receptor type 1 (Homo sapiens, UniProt P25024); also: in other assays of this panel Not Active means under 50% inhibition at 10 µM
T1 sequence (P25024 whole entry): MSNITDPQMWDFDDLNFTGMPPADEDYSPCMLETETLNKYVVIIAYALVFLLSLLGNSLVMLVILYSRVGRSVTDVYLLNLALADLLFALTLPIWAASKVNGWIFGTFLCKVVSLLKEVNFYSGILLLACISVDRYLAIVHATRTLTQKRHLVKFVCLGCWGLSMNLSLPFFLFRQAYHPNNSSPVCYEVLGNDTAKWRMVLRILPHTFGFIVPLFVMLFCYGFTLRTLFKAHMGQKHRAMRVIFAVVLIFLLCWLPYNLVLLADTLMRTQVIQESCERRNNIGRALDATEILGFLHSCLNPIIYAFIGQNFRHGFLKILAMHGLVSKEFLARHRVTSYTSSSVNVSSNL

[3] = molecular target: T2, Muscarinic acetylcholine receptor M5 (Homo sapiens, UniProt P08912); format: cell membranes, CHO-K1, Membrane; also: in other assays of this panel Not Active means under 50% inhibition at 10 µM
T2 sequence (P08912 whole entry): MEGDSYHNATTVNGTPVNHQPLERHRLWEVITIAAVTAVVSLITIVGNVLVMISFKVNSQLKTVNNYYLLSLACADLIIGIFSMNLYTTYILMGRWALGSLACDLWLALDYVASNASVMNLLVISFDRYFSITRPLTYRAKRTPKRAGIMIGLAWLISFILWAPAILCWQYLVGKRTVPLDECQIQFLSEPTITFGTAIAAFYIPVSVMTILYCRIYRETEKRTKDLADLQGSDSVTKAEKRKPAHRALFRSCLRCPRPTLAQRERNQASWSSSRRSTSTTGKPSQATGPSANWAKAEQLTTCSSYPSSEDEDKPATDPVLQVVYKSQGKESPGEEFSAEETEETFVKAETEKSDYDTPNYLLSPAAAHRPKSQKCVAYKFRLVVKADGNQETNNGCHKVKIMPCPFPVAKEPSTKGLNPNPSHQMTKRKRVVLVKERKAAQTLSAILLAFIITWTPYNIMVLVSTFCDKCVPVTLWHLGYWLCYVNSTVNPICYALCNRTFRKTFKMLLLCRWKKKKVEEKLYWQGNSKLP

Neutrophil elastase = molecular target: T3, Neutrophil elastase (Homo sapiens, UniProt P08246); format: tissue-based;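 also: inhibition of neutrophil elastase enzyme activity, measured with a p-nitroanilide-linked peptide substrate; in other assays of this panel Not Active means under 50% inhibition at 10 µM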
T3 sequence (P08246 whole entry): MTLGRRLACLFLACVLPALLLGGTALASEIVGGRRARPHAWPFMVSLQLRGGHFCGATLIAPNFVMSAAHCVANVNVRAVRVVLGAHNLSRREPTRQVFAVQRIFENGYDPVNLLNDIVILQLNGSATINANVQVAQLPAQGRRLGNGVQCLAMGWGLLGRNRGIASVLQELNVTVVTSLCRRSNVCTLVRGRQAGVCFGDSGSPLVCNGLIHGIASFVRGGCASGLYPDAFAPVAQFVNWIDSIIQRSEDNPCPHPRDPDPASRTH

Cytochrome P450 2C19 = Cytochrome P450 2C19 (Homo sapiens, UniProt P33261); settings: bti-tn-5b1-4; also: in other assays of this panel Not Active means under 50% inhibition at 10 µM
Cytochrome P450 2D6 = Cytochrome P450 2D6 (Homo sapiens, UniProt P10635); settings: bti-tn-5b1-4; also: in other assays of this panel Not Active means under 50% inhibition at 10 µM
Cytochrome P450 2D6, sequence (P10635 whole entry): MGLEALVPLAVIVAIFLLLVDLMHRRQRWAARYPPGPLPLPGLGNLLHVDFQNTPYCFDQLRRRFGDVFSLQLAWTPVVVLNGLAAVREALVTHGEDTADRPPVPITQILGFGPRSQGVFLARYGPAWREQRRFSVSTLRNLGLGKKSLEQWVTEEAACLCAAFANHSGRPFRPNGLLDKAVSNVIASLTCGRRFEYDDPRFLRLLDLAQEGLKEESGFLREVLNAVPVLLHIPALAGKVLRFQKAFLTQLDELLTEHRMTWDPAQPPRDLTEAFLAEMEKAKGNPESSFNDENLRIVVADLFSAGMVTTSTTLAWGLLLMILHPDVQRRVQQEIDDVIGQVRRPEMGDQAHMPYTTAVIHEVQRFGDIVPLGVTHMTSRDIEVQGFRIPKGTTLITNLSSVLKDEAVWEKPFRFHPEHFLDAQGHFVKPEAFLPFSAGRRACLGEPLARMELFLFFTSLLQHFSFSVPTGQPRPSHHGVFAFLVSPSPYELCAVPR

Cytochrome P450 2C19, sequence (P33261 whole entry): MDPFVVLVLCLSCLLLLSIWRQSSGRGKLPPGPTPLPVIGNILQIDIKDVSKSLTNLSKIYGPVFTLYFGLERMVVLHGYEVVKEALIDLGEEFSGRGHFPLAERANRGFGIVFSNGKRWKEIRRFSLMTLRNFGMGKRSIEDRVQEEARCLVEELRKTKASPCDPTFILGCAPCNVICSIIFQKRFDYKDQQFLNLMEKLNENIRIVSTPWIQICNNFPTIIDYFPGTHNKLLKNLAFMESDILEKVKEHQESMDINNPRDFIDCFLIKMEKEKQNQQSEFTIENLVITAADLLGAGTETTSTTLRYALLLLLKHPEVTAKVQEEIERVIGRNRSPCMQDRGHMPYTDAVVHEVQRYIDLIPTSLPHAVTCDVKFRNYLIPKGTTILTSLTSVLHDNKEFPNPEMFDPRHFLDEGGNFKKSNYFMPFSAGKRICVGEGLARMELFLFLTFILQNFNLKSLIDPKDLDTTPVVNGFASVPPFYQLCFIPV
C-C chemokine receptor type 2, sequence (P41597 whole entry): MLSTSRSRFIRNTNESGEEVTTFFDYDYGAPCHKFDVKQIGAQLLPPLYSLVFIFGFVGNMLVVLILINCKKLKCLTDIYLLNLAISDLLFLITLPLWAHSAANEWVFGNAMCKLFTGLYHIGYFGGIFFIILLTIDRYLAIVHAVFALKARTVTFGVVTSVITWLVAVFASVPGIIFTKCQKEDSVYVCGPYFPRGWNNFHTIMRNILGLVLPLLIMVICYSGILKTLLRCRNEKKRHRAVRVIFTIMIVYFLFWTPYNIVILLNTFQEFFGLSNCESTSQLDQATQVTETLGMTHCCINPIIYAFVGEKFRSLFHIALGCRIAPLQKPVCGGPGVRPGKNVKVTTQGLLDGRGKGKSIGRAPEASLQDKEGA

Row | Compound | IC50 (Carbonic anhydrase 2; erythrocyte) | IC50 [1] | IC50 [2] | IC50 ([3]; cho-k1) | IC50 (Neutrophil elastase) | IC50 (Cytochrome P450 2C19) | Ki (Cytochrome P450 2C19) | IC50 (Cytochrome P450 2D6) | Ki (Cytochrome P450 2D6) | IC50 ([3]; read-out: IC50) [µM] | Ki ([3]; read-out: Ki) [µM] | IC50 (Carbonic anhydrase 2; read-out: IC50) [µM] | Ki (Carbonic anhydrase 2; erythrocyte) | Ki [1] | Ki [2] | Ki ([3]; cho-k1) | Ki (Neutrophil elastase)
1 | Cc1noc(NS(=O)(=O)c2ccc(N)cc2)c1C [SULFISOXAZOLE] | Not Active | Not Active | Not Active | Not Active | Not Active | Not Active | Not Active | Not Active | Not Active | – | – | – | – | – | – | – | –
2 | CSc1ccc(/C=C2/C(C)=C(CC(=O)O)c3cc(F)ccc32)cc1 [SULINDAC SULFIDE] | Not Active | Not Active | Not Active | Not Active | Not Active | Not Active | Not Active | Not Active | Not Active | – | – | – | – | – | – | – | –
3 | CC(C)N1CCN(c2ccc(OCC3COC(Cn4cncn4)(c4ccc(Cl)cc4Cl)O3)cc2)CC1 (stereo not drawn) [TERCONAZOLE] | Not Active | Not Active | Not Active | – | Not Active | Not Active | Not Active | Not Active | Not Active | 4.36 | 3.13 | – | – | – | – | – | –
4 | Nc1nc2nc[nH]c2c(=S)[nH]1 [THIOGUANINE] | Not Active | Not Active | Not Active | Not Active | Not Active | Not Active | Not Active | Not Active | Not Active | – | – | – | – | – | – | – | –
5 | NC[C@H]1CC[C@H](C(=O)O)CC1 [TRANEXAMIC ACID] | Not Active | Not Active | Not Active | Not Active | Not Active | Not Active | Not Active | Not Active | Not Active | – | – | – | – | – | – | – | –
6 | CC1(C)O[C@@H]2C[C@H]3[C@@H]4CCC5=CC(=O)C=C[C@]5(C)[C@@]4(F)[C@@H](O)C[C@]3(C)[C@]2(C(=O)CO)O1 [TRIAMCINOLONE ACETONIDE] | Not Active | Not Active | Not Active | Not Active | Not Active | Not Active | Not Active | Not Active | Not Active | – | – | – | – | – | – | – | –
7 | NS(=O)(=O)c1cc2c(cc1Cl)NC(C(Cl)Cl)NS2(=O)=O (stereo not drawn) [TRICHLORMETHIAZIDE] | Not Active | Not Active | Not Active | Not Active | Not Active | Not Active | Not Active | Not Active | Not Active | – | – | – | – | – | – | – | –
8 | Cc1c(C)c2c(c(C)c1O)CCC(C)(COc1ccc(CC3SC(=O)NC3=O)cc1)O2 (stereo not drawn) [TROGLITAZONE] | – | Not Active | Not Active | Not Active | Not Active | Not Active | Not Active | Not Active | Not Active | – | – | 0.97 | – | – | – | – | –
9 | N[C@@H]1[C@H]2CN(c3nc4c(cc3F)c(=O)c(C(=O)O)cn4-c3ccc(F)cc3F)C[C@@H]12 [TROVAFLOXACIN] | Not Active | Not Active | Not Active | Not Active | Not Active | Not Active | Not Active | Not Active | Not Active | – | – | – | – | – | – | – | –
10 | N#CC(C#N)=Cc1ccc(O)c(O)c1 [TYRPHOSTIN 23] | Not Active | Not Active | Not Active | Not Active | Not Active | Not Active | Not Active | Not Active | Not Active | – | – | – | – | – | – | – | –
11 | CC[C@]1(O)C[C@H]2CN(CCc3c([nH]c4ccccc34)[C@@](C(=O)OC)(c3cc4c(cc3OC)N(C=O)[C@H]3[C@@](O)(C(=O)OC)[C@H](OC(C)=O)[C@]5(CC)C=CCN6CC[C@]43[C@@H]65)C2)C1 [VINCRISTINE] | Not Active | Not Active | Not Active | Not Active | Not Active | Not Active | Not Active | Not Active | Not Active | – | – | – | – | – | – | – | –
12 | CCCOc1ccccc1-c1nc2nn[nH]c2c(=O)[nH]1 [ZAPRINAST] | Not Active | Not Active | Not Active | Not Active | Not Active | Not Active | Not Active | Not Active | Not Active | – | – | – | – | – | – | – | –
13 | SODIUM NITROPRUSSIDE | Not Active | Not Active | Not Active | Not Active | Not Active | Not Active | Not Active | Not Active | Not Active | – | – | – | Not Active | Not Active | Not Active | Not Active | Not Active
